ChEMBL document CHEMBL1201862, “PubChem BioAssay data set” (2004)
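Protocol summary: plate cells (96-well), add compound at 5 concentrations, incubate 48 h, interpolate endpoints linearly. Here, GI50 denotes the concentration required for 50% inhibition of growth.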 Active and inactive are the calls of the source. No stated cut-off is given here; in the data, active = GI50 up to about 1.1 µM and inactive = higher.

What was measured:
Experiment in all cases: NCI-60 cell line screen, 48 h
[1] = tested on: NCI-H23
[2] = tested on: SF-268
[3] = tested on: ACHN
[4] = tested on: T47D
[5] = tested on: OVCAR-5
[6] = tested on: IGROV-1
[7] = tested on: COLO 205
[8] = tested on: Hs-578T
[9] = tested on: CAKI-1
[10] = tested on: SK-MEL-5
[11] = tested on: NCI/ADR-RES
[12] = tested on: HCT-116
[13] = tested on: K562
[14] = tested on: PC-3
[15] = tested on: DU-145
[16] = tested on: NCI-H460
[17] = tested on: A498
[18] = tested on: MDA-MB-231
[19] = tested on: Malme-3M

Measured: GI50

CC1C(c2ccc3c(c2)OCO3)c2cc3c(cc2OC1N1CCCCC1)OCO3 (stereo not given)
inactive: [1] 60.8 µM | [2] > 100 µM | [3] 59.6 µM | [4] 30.7 µM | [5] > 100 µM | [6] 56.6 µM | [7] 36.5 µM | [8] 35.4 µM | [9] 23.4 µM | [10] 54.6 µM | [11] 42 µM | [12] 42.6 µM | [13] 35.7 µM | [14] 37.5 µM | [15] 52.8 µM | [16] 77.8 µM

CCOC(=O)C(C(=O)COC(C)(C)C)[C@@H]1C=C[C@H](OC(C)=O)C1 (stereo not given in full)
inactive: [17] > 100 µM | [1] > 100 µM | [2] > 100 µM | [3] > 100 µM | [4] > 100 µM | [5] > 100 µM | [7] > 100 µM | [8] > 100 µM | [18] > 100 µM | [9] > 100 µM | [11] > 100 µM | [12] > 100 µM | [13] > 100 µM | [14] > 100 µM | [19] > 100 µM | [16] > 100 µM

O=C1NC(S(=O)(=O)O)=NNC12c1ccccc1-c1ccccc12
inactive: [1] > 10 µM | [2] > 10 µM | [3] > 10 µM | [4] 4.16 µM | [6] > 10 µM | [7] > 10 µM | [8] > 10 µM | [18] > 10 µM | [9] > 10 µM | [10] > 10 µM | [11] > 10 µM | [12] > 10 µM | [13] > 10 µM | [14] > 10 µM | [19] > 10 µM | [15] > 10 µM | [16] > 10 µM

CN(C)CCCN1c2ccc([N+](=O)[O-])cc2CCc2cccc([N+](=O)[O-])c21
inactive: [1] 15.9 µM | [2] 15.5 µM | [3] 17.6 µM | [4] 17.4 µM | [5] 13 µM | [6] 14.9 µM | [7] 12.8 µM | [8] 14.4 µM | [18] 13.1 µM | [10] 15.2 µM | [11] 13.3 µM | [12] 14.3 µM | [13] 14.8 µM | [14] 16.7 µM | [19] 14.1 µM | [15] 17.4 µM | [16] 15.5 µM

N#CC1CCN2N=C(c3ccccc3)SC12c1ccccc1 (stereo not given)
inactive: [1] 32 µM | [2] > 100 µM | [3] 21.1 µM | [4] 24.5 µM | [5] > 100 µM | [6] > 100 µM | [7] 40.7 µM | [8] 88.3 µM | [18] > 100 µM | [9] 35.4 µM | [10] 34.4 µM | [11] 32.9 µM | [12] 35.2 µM | [13] 28.6 µM | [14] 35.7 µM | [19] > 100 µM | [16] 26.1 µM

CC(=O)CC1(O)C(=O)c2c(Br)sc(Br)c2C1=O
inactive: [17] > 100 µM | [1] 19.5 µM | [2] 30.2 µM | [3] 34.3 µM | [4] 30.9 µM | [5] 17.6 µM | [6] 17 µM | [7] 18.7 µM | [8] 31.3 µM | [9] 17.3 µM | [10] 18.4 µM | [11] 36.5 µM | [12] 19.8 µM | [13] 32.8 µM | [14] 20.6 µM | [19] 18.1 µM | [15] 42.8 µM | [16] 45.1 µM

Cc1ccc([N+](=O)[O-])c2c(NCC(O)CO)ccnc12 (stereo not given)
inactive: [1] 41.8 µM | [2] 60.4 µM | [3] 57.5 µM | [4] 49.7 µM | [5] > 100 µM | [6] 43.2 µM | [7] 25.5 µM | [8] 7.71 µM | [9] 54 µM | [10] 18.6 µM | [11] > 100 µM | [12] 44.4 µM | [13] 50 µM | [14] 70.3 µM | [19] 16.4 µM | [15] 51.4 µM | [16] 20 µM

OC(/C(=N/c1ccccc1)c1ccccc1)c1ccccc1 (stereo not given)
inactive: [17] 16.1 µM | [1] 4.4 µM | [2] 4.99 µM | [3] 14.4 µM | [4] 5.62 µM | [5] 23.1 µM | [6] 9.46 µM | [7] 4.05 µM | [8] 2.29 µM | [18] 13.8 µM | [9] 11.9 µM | [10] 2.07 µM | [11] 23.5 µM | [12] 5.37 µM | [13] 3.85 µM | [19] 2.22 µM | [15] 5.35 µM | [16] 6.5 µM

O=S(=O)(Nc1nc2ccccc2nc1N1CCCCCC1)c1ccccc1
inactive: [1] 19.1 µM | [2] 37.7 µM | [3] 21.1 µM | [4] > 100 µM | [5] 57.3 µM | [6] 20.8 µM | [7] > 100 µM | [8] 17.5 µM | [18] > 100 µM | [9] > 100 µM | [10] 14.3 µM | [11] 25.8 µM | [12] > 100 µM | [13] > 100 µM | [14] 19.4 µM | [19] 25.4 µM | [15] > 100 µM | [16] 15.7 µM

CCOC(=O)CC1(Cc2ccc(OCc3ccccc3)cc2)C(=O)OC(c2ccccc2)N1C(=O)c1ccccc1 (stereo not given)
inactive: [1] > 100 µM | [2] > 100 µM | [3] > 100 µM | [4] > 100 µM | [5] > 100 µM | [6] > 100 µM | [7] > 100 µM | [8] > 100 µM | [18] 68.9 µM | [9] > 100 µM | [10] > 100 µM | [11] > 100 µM | [12] > 100 µM | [13] > 100 µM | [14] > 100 µM | [19] > 100 µM | [15] > 100 µM | [16] 21.5 µM

O=S(=O)(O)c1ccc(/N=N/c2ccc(/N=N/c3c(O)ccc4ccccc34)cc2)cc1
inactive: [1] > 94.2 µM | [2] > 100 µM | [3] > 100 µM | [4] 97.9 µM | [5] > 100 µM | [6] 38.6 µM | [7] > 100 µM | [8] > 100 µM | [18] > 100 µM | [9] > 100 µM | [10] > 91.8 µM | [11] > 100 µM | [12] > 100 µM | [13] > 100 µM | [14] > 100 µM | [19] 35.6 µM | [15] > 89.3 µM | [16] > 100 µM
